US12029730B2, “Pharmaceutical composition for preventing or treating cancer, containing N-1H-benzimidazol-2-yl-3-(1H-pyrrole-1-yl)benzamide as active ingredient” (KOREA INSTITUTE OF RADIOLOGICAL & MEDICAL SCIENCES, priority 2018, dated 2024)

Legend:
MASTL kinase = target: T1, MASTL kinase (Homo sapiens, UniProt Q96GX5); assay: In vitro MASTL kinase analysis, immunoblotting for phosphorylated ENSA; assay type: biochemical; details: western blot, 50 μM or more, FIG. 3
T1 construct: GST; purchased Thermo Fisher Scientific
T1 sequence (Q96GX5 1-879): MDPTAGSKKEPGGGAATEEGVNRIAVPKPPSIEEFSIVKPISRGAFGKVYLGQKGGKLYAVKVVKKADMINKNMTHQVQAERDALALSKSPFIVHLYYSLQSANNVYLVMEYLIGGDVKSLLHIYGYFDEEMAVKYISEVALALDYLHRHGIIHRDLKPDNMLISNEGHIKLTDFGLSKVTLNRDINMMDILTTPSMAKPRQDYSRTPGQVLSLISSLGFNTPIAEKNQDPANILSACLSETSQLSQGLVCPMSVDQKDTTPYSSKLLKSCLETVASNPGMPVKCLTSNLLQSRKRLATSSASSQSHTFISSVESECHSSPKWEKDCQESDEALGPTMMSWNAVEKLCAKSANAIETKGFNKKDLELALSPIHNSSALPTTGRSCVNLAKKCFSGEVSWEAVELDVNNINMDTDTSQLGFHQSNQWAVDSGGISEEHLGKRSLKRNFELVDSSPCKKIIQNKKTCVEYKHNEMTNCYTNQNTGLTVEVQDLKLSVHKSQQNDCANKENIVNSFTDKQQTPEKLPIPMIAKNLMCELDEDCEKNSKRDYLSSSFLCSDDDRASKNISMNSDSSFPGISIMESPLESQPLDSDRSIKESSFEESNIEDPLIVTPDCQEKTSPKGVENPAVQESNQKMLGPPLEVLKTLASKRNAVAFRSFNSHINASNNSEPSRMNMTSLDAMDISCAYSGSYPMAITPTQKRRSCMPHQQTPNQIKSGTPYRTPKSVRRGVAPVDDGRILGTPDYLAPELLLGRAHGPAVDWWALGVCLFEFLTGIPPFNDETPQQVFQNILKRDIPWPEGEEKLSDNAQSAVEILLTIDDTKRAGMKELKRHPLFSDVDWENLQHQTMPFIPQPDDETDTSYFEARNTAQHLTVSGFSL
Method: The MASTL kinase analysis in vitro was performed by reacting recombinant GST-tagged-MASTL (Thermo Fisher Scientific, Waltham, MA, USA) and his-tagged-ENSA (Sino Biological Inc., Beijing, China) proteins or immunoprecipitated proteins derived from MCF7 cells with the MASTL antibody (AP7147d; Abgent, CA, USA) in a kinase buffer consisting of 100 mM Tris-HCl (pH 7.5), 30 mM MgCl2, 2 mM DTT, 1 mM EDTA and 10 μM ultrapure ATP. The reaction proceeded, and then stopped by treating with SDS-loading buffer. In this experiment, the multi-AGC kinase inhibitor AT13148 was used as a positive control. The reaction was analyzed by performing immunoblotting for phosphorylated ENSA, and the results of the analysis were shown in FIG. 1B, and the results of the experiments confirming the cell survival and the kinase inhibitor activity were shown in FIG. 1C.
A protein kinase analysis was performed using the ADP-Glo™ kinase assay kit according to the standard protocol provided by Promega. […] Then, the reacted product was transferred to a 384-well white plate, and […] was read using a SpectraMax i3× Multi-Mode Microplate Reader (Molecular Devices), and GKI-1, N-(4-chlorophenyl)-3-(1H-pyrazol-4-yl)aniline and AT13148 were used as positive controls. The effect of inhibiting kinase activity of GKI-1 and MKI-1 and its IC50 confirmed through the reading result were shown in FIG. 2. […]

[1] = tested on: MASTL kinase (phosphorylated ENSA); assay: Immunofluorescence staining of phosphorylated ENSA (Ser67)/ARPP19 (ser62) in MCF7; assay type: cell-based, human; details: with Colcemid 16 to 18 hours, FIG. 4
Method: After culturing 2.5×10^4 MCF7 cells in a 6-well plate for 24 hours, 80 ng/mL of a MASTL kinase inhibitor and a cell cycle control agent Colcemid (KaryoMAX™ Colcemid™ Solution in PBS; Gibco) were treated for 16 to 18 hours. After washing with phosphate buffered saline for fixation and permeabilization of cells, 4% paraformaldehyde and 0.2% Triton-X were added and reacted for 10 minutes, respectively. After 1 hour pretreatment with 5% fetal bovine serum, 1:100 diluted antibody against phosphorylated ENSA (Ser67)/ARPP19 (ser62) was treated for 16 hours, and then it was washed with 0.1% Triton X-100/phosphate buffered saline solution (Tritonx-100/PBS) 3 times. Alexa488-conjugated secondary antibody (AP132JA4, Invitrogen) was reacted for 2 hours at room temperature to label, and phosphorylated ENSA was photographed and analyzed using IN Cell Analyzer 6000 (GE Healthcare Life Science).

MASTL kinase (p-ENSA) = assay: Western blotting of phosphorylated ENSA in MCF7 cells; assay type: cell-based, human; details: western blot, FIG. 5
Method: (§1) 20 μg of protein was separated by SDS-PAGE electrophoresis and transferred to a PVDF membrane, and the following specific antibodies were used: rabbit polyclonal antibody MASTL (Abgent); phospho-ENSA (Ser67)/ARPP19 (Ser62) (#5240), ENSA (#11915S), cleaved PARP (Asp214) (#9541), AKT (#9272), phospho-AKT (ser473) (#9271), phospho-GSK-3α/β (Ser21/9) (#9331), phospho-p70S6K (The 288) (#9205) and phospho-Chk2 (Thr68) (#2661; Cell Signaling Technology, MA); p70S6K (sc-230; Santa Cruz Biotechnology, CA, USA), phospho-H3 (S10) (06-570, Merck, NJ); mouse monoclonal antibody caspase-2 (#2224S). In addition, mouse […] antibody β-actin (C4; Santa Cruz Biotechnology, CA, USA) was used as a loading control, it was washed with 1×PBS/0.1% Tween 20, and the binding protein was detected using HRP-binding secondary antibody and improved chemiluminescence detection system. The remaining conditions of Western blotting were the same as in Example 3, and the image of the band was obtained by Amersham Imager 600 system (GE Healthcare Life Science) or X-Ray film (AG, HealthCare, SC, USA) and it was shown in FIG. 5.

AKT = assay: Western blotting of AKT and GSK-3 phosphorylation in MCF7 cells; assay type: cell-based, human; details: western blot, FIG. 5
Method: as §1

phospho-H3 (S10) = assay: Western blotting of phosphorylated H3 in MCF7 cells; assay type: cell-based, human; details: western blot, FIG. 5
Method: as §1

Structure (SMILES): O=C(Nc1nc2ccccc2[nH]1)c1cccc(-n2cccc2)c1 [MKI-1, N-1H-benzimidazol-2-yl-3-(1H-pyrrol-1-yl) benzamide]
- ENSA phosphorylation (p-ENSA) in vitro (MASTL kinase): p-ENSA did not appear
- phosphorylation of ENSA in MCF7 relative to DMSO [1]: close to about half of that of DMSO
- expression level of phosphorylated p-ENSA (MASTL kinase (p-ENSA)): reduced the expression level of phosphorylated p-ENSA in MCF7 cells in a dose-dependent manner
- activation of AKT / phosphorylated GSK-3 (AKT): did not regulate the activities of AKT and phosphorylated GSK-3P
- expression level of phosphorylated H3 (phospho-H3 (S10)): increased the expression level of phosphorylated H3 in a dose-dependent manner
